This experiment deals with T1, human CB2 receptors (Homo sapiens, UniProt P34972).
T1 construct: expressed in transfected cells; host or cells: CHO cells (membrane fraction)
Put plainly: CHO-CB2 radioligand displacement binding (filtration). The conditions noted are these: membranes of CB2 cells, Cheng & Prusoff, n = 3 or 4. The procedure:
CHO cells and membrane preparation. These were stably transfected with cDNA encoding human CB2 receptors. […] Cells were maintained at 37° C. and 5% CO2 in DMEM (f-12 HAM) with 2 mm Glutamine, Geneticin (600 μg ml−1) and Hygromycin (300 μg ml−1). […] CHO cells were suspended in 50 mm Tris buffer (pH 7.4) and 0.32 m sucrose and homogenized with an Ultra-Turrex homogenizer. The homogenate was diluted with 50 mm Tris buffer (pH 7.4) and centrifuged at 50,000×g for 1 hour to isolate the membranes.
CHO—CB2 binding. […] Binding was initiated by the addition of cell membranes (20-30 μg protein). Assays were carried out at 30° C. for 90 minutes before termination by addition of ice-cold wash buffer (50 mm Tris buffer, 1 mg ml−1 BSA) and vacuum filtration using a 12-well sampling manifold (Brandel Cell Harvester) and Whatman GF/B glass-fibre filters that had been soaked in wash buffer at 4° C. for 24 hours. Each reaction tube was washed three times with a 4 ml aliquot of buffer. The filters were oven-dried for 60 minutes and then placed in 5 ml of scintillation fluid (Ultima Gold XR, Packard). Radioactivity was quantified by liquid scintillation spectrometry. Specific binding was defined as the difference between the binding that occurred in the presence and absence of 1 μm reference cannabidiol. Protein assays were performed using a Bio-Rad Dc kit. […] […] Competitive binding curves were fitted with minimum values for displacement of radio ligand from specific binding sites constrained to zero.
Additionally, binding of an MCA, described herein, was tested for this reference sample. The resulting displacement and binding values were used as a reference standard against which 26 CBD samples (acquired from Natural Hemp Solutions, Atlanta Ga.) were compared.
Background: Displacement assays read how much labelled ligand stays bound in the presence of the test substance.

Setting [1] is: labelled cannabinoid [3H]-CP55940.

Usually Ki stands for the equilibrium dissociation constant of an inhibitor or competing ligand from its target.

T1 sequence (P34972 whole entry): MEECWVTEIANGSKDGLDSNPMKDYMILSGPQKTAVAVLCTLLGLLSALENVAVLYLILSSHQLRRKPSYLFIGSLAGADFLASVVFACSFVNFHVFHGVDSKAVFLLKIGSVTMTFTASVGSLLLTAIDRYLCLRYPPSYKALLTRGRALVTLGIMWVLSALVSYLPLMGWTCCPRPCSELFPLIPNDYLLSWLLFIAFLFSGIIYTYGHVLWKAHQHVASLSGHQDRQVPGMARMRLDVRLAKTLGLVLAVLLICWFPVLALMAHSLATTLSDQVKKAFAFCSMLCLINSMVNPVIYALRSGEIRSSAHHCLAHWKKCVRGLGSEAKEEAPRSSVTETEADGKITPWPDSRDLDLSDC

On to `COc1ccc(C(=O)c2c(C)n(CCN3CCOCC3)c3cc(I)ccc23)cc1` [AM630], for which the Ki is, setting by setting: under setting [1], 31.2 ± 12.4 nM; (labelled cannabinoid [3H]-W1N55212-2) 37.5 ± 15.4 nM.
`C=C1CC[C@@H]2[C@@H](C1)c1c(OC)cc(C(C)(C)CCCCCC)cc1OC2(C)C` [Sample L759656]: the affinity under setting [1] corresponds to a Ki of 11.8 ± 2.5 nM.
`CCCCCCC(C)(C)c1cc(OC)c2c(c1)OC(C)(C)[C@@H]1CC=C(C)C[C@@H]21` [Sample L759633] had a Ki under setting [1] of 6.4 ± 2.2 nM.

The values above are taken from patent publication US11860174B2, “Anti-cannabidiol antibody and uses thereof” (BOMI, LLC, priority 2017, dated 2024).
